Reference: paper PMC11915032, “Development of a Novel ^18F-Labeled Radioligand for Imaging Cholesterol 24-Hydroxylase with Positron Emission Tomography” (ACS Pharmacology & Translational Science, 2025)

What was measured:
[1] = target: T1, CYP46A1 (Homo sapiens, UniProt Q9Y6A2); set-up: method as in PMID 32178974, PMID 34651220, PMID 37770111, PMID 36197966; details: in vivo; cited from earlier work
[2] = target: T2, CYP46A1 (Rattus norvegicus, UniProt A0ACM8QFK4); test: Dynamic PET imaging in Sprague-Dawley rats; format: in vivo
T2 construct: from tissue; host or cells: rat brain (Sprague-Dawley rats)
Protocol: To investigate the in vivo binding specificity of [^18F]5 toward CYP46A1, dynamic PET imaging was performed in Sprague–Dawley (SD) rats (Figures 5 and S3 in the Supporting Information). […] Future studies will be required to evaluate its suitability in higher species and direct comparisons under identical experimental conditions. […] To investigate the reversibility of the tracer binding, we further performed a displacement study with Soticlestat at 20 min postadministration of [^18F]5 (Figure S4 in the Supporting Information).
The dynamic PET imaging study was performed in SD rats as previously reported.[21] A Genisys G8 PET scanner (Sofie Biosciences, USA) was used for dynamic PET imaging in rats with [^18F]5 (0.04 mCi) for 60 min. In the blocking study, rats were pretreated with Soticlestat (1 mg/kg, intravenous injection via the tail vein) 10 min before administration of [^18F]5. For the chase study, the rats were treated with Soticlestat (1 mg/kg, i.v.) 20 min after administration of [^18F]5.

[3] = target: T1, CYP46A1; test: CYP46A1 inhibition potency; format: biochemical
[4] = In vitro stability in saline; format: physicochemical; details: saline 18.5 MBq/mL, containing 5% ethanol, up to 60 min
Protocol: The ^18F-labeling nosylate precursor 6 was prepared via a procedure similar to that of compound 5 in 31% yield over two steps (Scheme S1). […] [^18F]5 was generated in a 13% decay-corrected radiochemical yield with a high molar activity of 93 GBq/μmol (2.5 Ci/ μmol).

[5] = Stability in mouse serum; format: in vitro ADME; details: 37 °C, up to 60 min
Protocol: (§1) Mouse serum (Sigma-Aldrich, cat. M5905, 0.4 mL), rat serum (Abcam, cat. ab7488, 0.4 mL), NHP serum (Abcam, cat. ab155109, 0.4 mL), and human serum (Sigma-Aldrich, cat. H4522, 0.4 mL) were incubated at 37 °C for 5 min. Then, formulated [^18F]5 was added and incubated at 37 °C (Benfluorex was used in the positive control test). At 5, 30, and 60 min after incubation with [^18F]5, 100 μL of the samples was drawn in centrifugal tubes and added to ice-cold MeCN (100 μL). The mixtures were centrifuged at 10,000g for 5 min, and the supernatants were analyzed by radio-HPLC.

[6] = Stability in rat serum; format: in vitro ADME; details: 37 °C, up to 60 min
Protocol: as §1

[7] = Stability in NHP serum; format: in vitro ADME; details: 37 °C, up to 60 min
Protocol: as §1

[8] = Stability in human serum; format: in vitro ADME; details: 37 °C, up to 60 min
Protocol: as §1

[9] = Whole-body biodistribution in CD-1 mice; format: in vivo, mouse
Protocol: The biodistribution study was conducted in CD-1 mice as previously reported.[24] CD-1 mice were administrated with [^18F]5 (10 μCi) and divided into four groups and then euthanized at 5, 15, 30, and 60 min after administration of [^18F]5. Major organs were collected, weighed, and measured by a gamma counter.

[10] = Radiometabolite analysis in SD rats; format: in vivo, rat
Protocol: Radiometabolite analysis of [^18F]5 was conducted as previously reported.[25] SD rats were administrated with [^18F]5 and then euthanized at 20 and 60 min after administration of [^18F]5. The brains were collected, homogenized, and centrifuged with cold acetonitrile and PBS buffer. Then, the supernatants were injected into a radio-HPLC with unlabeled 5 as an internal standard. Both [^18F]5 and its ^18F-metabolites were collected by HPLC and then measured by a gamma counter. The same procedure was performed for the plasma.

[11] = logD by shake flask method; format: physicochemical; details: n-octanol/PBS
Protocol: The lipophilicity was measured according to a previous report.[21] In brief, [^18F]5, n-octanol (3 mL), and PBS (3 mL) were added in a centrifugal tube, followed by vortexing for 3 min and centrifugation (∼14,000 rpm) for 5 min. Then, PBS (around 500 μL) and n-octanol (around 50 μL) were weighed and measured by a gamma counter.

[12] = test system: 67 major CNS targets; test: Off-target binding screen at 10 μM (NIMH PDSP); details: 10 μM testing concentration; except sigma-2 receptor
Protocol: Furthermore, off-target binding assays of compound 5 were performed in vitro against 67 major CNS targets (Figure S1 in the Supporting Information).
1 Supporting Scheme, Figures, and Tables
Scheme S1. Synthesis of precursor 6. (i) azetidin-3-ol hydrochloride, triphosgene, NEt 3, dichloromethane, 0 °C to room temperature, 1 h; (ii) 4-nitrobenzenesulfonyl chloride, 4-(dimethylamino)pyridine, NEt3, dichloromethane, room temperature, 12 h, 31% yield over […]
% Inhibition of Target Activity
Figure S1. Off-target pharmacological evaluation of compound 5 against major CNS targets, including common GPCRs, enzymes, ion channels, and transporters: initial screening at a concentration of 10 μM (supported by the NIMH PDSP). All data are mean

[13] = target: T2, CYP46A1; test: In vitro autoradiography with [^18F]5 on rat brain tissue sections; format: binding; details: displacement of [^18F]5 with unlabeled 5 at varying concentrations
Protocol: To assess the binding specificity of [^18F]5 for CYP46A1, in vitro autoradiography was performed by using rat brain tissue sections. […] The accumulation patterns are in agreement with the brain distribution of CYP46A1 in rodents.[18] […] Furthermore, [^18F]5 was utilized to assess the potency toward CYP46A1 through an inhibition assay based on an in vitro autoradiography study (Figure 4B). The assay was performed by the incubation of [^18F]5 on rat brain tissue sections in the presence of unlabeled 5 at varying concentrations.
The autoradiography study was conducted as previously reported.[22],[23] In brief, sagittal rat brain sections (20 μm) were incubated with Tris–HCl buffer (50 mM) at room temperature for 20 min and then incubated with [^18F]5 (1 μCi/mL). In the blocking study, the brain sections were incubated with [^18F]5 in the presence of Soticlestat, CHL2205, or 5 (10 μM). Then, the brain sections were washed with ice-cold Tris–HCl buffer (50 mM) for 2 min and cold distilled water for 10 s. Subsequently, the brain sections were dried, positioned on an imaging screen, and scanned by an Amersham Typhoon analyzer system.

T2 sequence (A0ACM8QFK4 29-500): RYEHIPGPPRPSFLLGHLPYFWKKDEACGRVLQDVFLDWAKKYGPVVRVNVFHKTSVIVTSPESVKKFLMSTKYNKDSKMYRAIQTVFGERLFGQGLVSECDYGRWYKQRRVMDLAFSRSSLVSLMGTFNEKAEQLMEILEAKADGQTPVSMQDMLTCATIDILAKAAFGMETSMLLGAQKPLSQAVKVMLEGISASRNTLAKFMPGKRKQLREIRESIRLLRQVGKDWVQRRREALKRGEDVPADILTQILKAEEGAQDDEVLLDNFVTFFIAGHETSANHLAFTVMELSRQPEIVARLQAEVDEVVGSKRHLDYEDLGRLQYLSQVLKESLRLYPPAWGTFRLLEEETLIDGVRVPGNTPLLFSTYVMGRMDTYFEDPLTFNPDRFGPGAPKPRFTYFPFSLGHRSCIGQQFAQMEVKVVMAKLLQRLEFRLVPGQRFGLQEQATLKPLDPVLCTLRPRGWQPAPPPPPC
T1 sequence (Q9Y6A2 whole entry, species assumed): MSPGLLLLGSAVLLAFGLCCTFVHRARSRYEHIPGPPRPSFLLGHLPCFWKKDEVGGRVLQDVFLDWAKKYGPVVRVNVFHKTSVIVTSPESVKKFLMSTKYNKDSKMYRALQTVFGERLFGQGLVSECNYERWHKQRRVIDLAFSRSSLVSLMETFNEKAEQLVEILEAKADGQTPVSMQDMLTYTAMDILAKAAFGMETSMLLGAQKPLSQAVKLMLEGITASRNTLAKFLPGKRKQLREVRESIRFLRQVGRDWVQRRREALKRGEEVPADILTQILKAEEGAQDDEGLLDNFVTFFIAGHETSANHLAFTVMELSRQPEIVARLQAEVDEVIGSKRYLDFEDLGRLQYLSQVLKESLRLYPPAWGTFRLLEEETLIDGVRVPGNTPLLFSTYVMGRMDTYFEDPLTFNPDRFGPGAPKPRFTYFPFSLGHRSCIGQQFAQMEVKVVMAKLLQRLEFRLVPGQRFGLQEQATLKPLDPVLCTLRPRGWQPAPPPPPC

In the case of `CN(C(=O)C1CCN(c2cncnc2-c2ccc([18F])cc2)CC1)C1CC1` [[^18F]CHL2205], the “binding specificity toward CYP46A1” value [1] is listed as “good binding specificity” and the brain uptake [1] is listed as “high brain uptake”.

In the case of `O=C(C1CCN(c2cncnc2-c2ccc(F)cc2)CC1)N1CC([18F])C1` [[^18F]T-008], the “binding specificity toward CYP46A1” value [1] is given as “good binding specificity” and the brain uptake [1] is given as “high brain uptake”.

For `O=[11C](NCc1ccccc1)N1CCN(c2cncnc2-c2ccccc2)CC1` [[^11C]A], the “binding specificity toward CYP46A1” value [1] is listed as “marginal binding specificity” and the brain uptake [1] is listed as “low brain uptake”.

For `O=C(c1cccnc1-c1ccncc1)N1CCC(O)(Cc2ccccc2)CC1` [Soticlestat, reference compound], the “brain signal in displacement (chase) study” value ([2]; 1 mg/kg i.v. at 20 min postadministration of [^18F]5) was “markedly reduced”.

With `O=C(N1CC([18F])C1)N1CCc2c(-c3cnco3)cc(C(F)(F)F)cc21` [[^18F]5] the IC50 [3] was 0.11 nM, the “in vitro stability (radiolysis) in saline” value [4] was “no radiolysis detected” and the “stability in mouse serum” value [5] was “minimal radiometabolite formation”. For the same compound, the “stability in rat serum” value [6] was “minimal radiometabolite formation”, the “stability in NHP serum” value [7] was “minimal radiometabolite formation” and the “stability in human serum” value [8] was “minimal radiometabolite formation”. For the same compound, the SUVmax in striatum ([2]; SD rats, baseline PET) was 4.1, the SUVmax in thalamus ([2]; SD rats, baseline PET) was 4.2 and the “brain uptake SUV” value ([2]; rodents) was greater than 4. The “bone uptake (radiodefluorination)” value ([9]; 5-60 min) was “No obvious increase in bone uptake”, the liver uptake ([9]; 60 min) was 6.5 % ID/g and the “initial uptake in brain, small intestine, kidney and liver” value ([9]; initially) was roughly 10 % ID/g. For the same compound, the “unchanged [^18F]5 in brain” value ([10]; 20 min postadministration) was 93%, the “unchanged [^18F]5 in plasma” value ([10]; 20 min postadministration) was 29% and the “unchanged [^18F]5 in brain” value ([10]; 60 min postadministration) was 92%. For the same compound, the “unchanged [^18F]5 in plasma” value ([10]; 60 min postadministration) was 23%.

In the case of `O=C(C1CCN(c2cnccc2-n2cc(Cl)cn2)CC1)N1CC([18F])C1` [[^18F]3g], the “binding specificity toward CYP46A1” value [1] is listed as “good binding specificity” and the brain uptake [1] is listed as “high brain uptake”.

For `O=C(N1CC(F)C1)N1CCc2c(-c3cnco3)cc(C(F)(F)F)cc21` [Compound 5, (3-fluoroazetidin-1-yl)(4-(oxazol-5-yl)-6-(trifluoromethyl)indolin-1-yl)methanone], the IC50 [3] was 0.11 nM, the logD [11] was 3.16 and the “off-target binding (>50% inhibition)” value [12] was “no significant off-target binding”. It also gave a Kd [13] of 0.37 nM.
